# Patent US9365830B2, “Agents and methods for inhibiting human pluripotent stem cell growth” (VIACYTE, INC., priority 2010, dated 2016)
# Assays:
# [1] = test system: OCT4-positive cells in Stage 1 differentiations of hES cells; test: Plating assay for depletion of OCT4-positive cells in Stage 1 suspension aggregates, OCT4 immunostaining; format: cell-based, human; details: treated day 1 to 2 of Stage 1 at EC50 concentration; plated 24 hours in hESC medium; vs untreated or DMSO
# Protocol: Human ES cell suspension aggregates were formed in rotational culture as described previously and differentiated through Stage 1 (definitive endoderm). About 20-30 aggregates were then plated per well in 4-well tissue culture dishes coated with MATRIGEL· diluted 1:200, and cultured for 24 hours in hESC medium (DMEM/F12, 10% XF-KSR, 10 ng/mL Activin A and 10 ng/mL Heregulin). This approach was intended to increase the contrast in OCT4 expression between undifferentiated hESCs and cells committed to differentiation. […] Stated in another way, mixed population cell cultures in hESC medium would potentially support expansion/proliferation of residual undifferentiated (hESCs), thereby show increased OCT4 gene expression, as compared to cells committed to differentiation, which would have decreased of OCT4 gene expression. Plated aggregates were immunostained for OCT4 protein and counterstained with DAPI, a nuclear stain (FIG. 12). The cell aggregates that were plated had flattened and spread out within a 24-hour period; while the centers of the aggregates were still domed. […] Brightly staining OCT4-positive cells were easily identified and distinguishable from the majority of OCT4 negative cells. OCT4-positive cells were generally found in clusters and most often within the domed area of a plated aggregate. […] Smaller aggregates residing in a larger aggregate may occur as a result of the initial stages of rotational culture, or the aggregation process, during which small clusters (primary aggregates) form initially. Aggregation of two or more primary aggregates likely leads to the formation of larger secondary aggregates, which can be 100-150 μm in diameter. Thus, it is possible that any single clusters of OCT4-positive cells exist at the center of a primary aggregate and resist differentiation. Such clusters would remain substantially undifferentiated and stain OCT4-positive. One hypothesis is that primary aggregates are specified to differentiation relative to their positioning in primary and secondary aggregates. For example, FIGS. 12A through 12E show a representative series of images, from small (primary) (e.g. FIGS. 12A and 12B) and larger (secondary) (e.g. FIGS. 12C-12E) plated aggregates containing OCT4-positive clusters (dark circles).
# (§1) Depletion of OCT4-positive cells during Stage 1 differentiation was examined using the plating assay described above. Stage 1 differentiations of hES cells were treated from day 1 to 2 with the candidate compounds as described in Example 2 (chelerythrine chloride, caffeic acid and Ivermectin), at their EC50 concentrations for hES cells. Plated untreated and DMSO-treated aggregates were indistinguishable, and both contained discrete clusters of OCT4-positive cells. See FIG. 13A top and bottom panels for a DMSO treated example. The intensity of OCT4-positive staining in differentiating aggregate cell cultures treated with DMSO (control) was equivalent to undifferentiated hES cells.
# Additional experiments were performed using higher concentrations of compounds and extended effects of the compounds in cell culture plated aggregates in hESC medium for 24 or 72 hours before staining (FIGS. 15 and 16). […] Another group of Stage 1 differentiating cultures were processed in parallel, but treated with 10 μm chelerythrine chloride.
# [2] = test system: undifferentiated hESCs growing in adherent culture; test: EC50 of cytotoxic effect on undifferentiated hESCs in adherent culture, real-time impedance assay; format: cell-based, human; details: undifferentiated hESCs, adherent culture, real-time impedance; read-out: EC50 concentrations for hES cells (cytotoxic effect)
# Protocol: In summary, the final three (3) candidates identified from both the primary and secondary screens (EXAMPLE 1) and the full screen of the LOPAC1280™ collection (EXAMPLE 2) were Chelerythrine Chloride, Caffeic acid and Ivermectin. FIG. 11 lists the known or inferred mode(s) of action for these three compounds, as well as their structures. EC50 values for the respective cytotoxic effects on undifferentiated hESCs growing in adherent culture were determined using real-time impedance assays.
# as §1
# hESCs (BG02) = test: Real-time impedance assay (RT-CES) for inhibitory and cytotoxic agents on hESCs; details: 10 μM compound added after about 24 hours, cultured about 5 more days; compared to DMSO control
# Source text: The foregoing 176 selected compounds from the complete LOPAC1280™ library were then used to screen human pluripotent stem cells, e.g., hESCs, and differentiating cultures during Stage 1 (definitive endoderm) using a real-time impedance assay (ACEA biosciences RT-CES system). The RT-CES system uses 96-well trays that contain embedded microsensors to monitor changes in electrical impedance, which is translated into a measure of cell index. Any overt alteration within a cell culture can be detected, including but not limited to cell proliferation, migration, cell spreading, apoptosis, differentiation and the like. […] An increase in the cell index indicates proliferation of the cells, for example, proliferation of the undifferentiated cells. […] See also FIG. 1. […] A “scallop” cell index is one which remains high due to a confluent culture of cells, but will go down and up (scallop) between daily feedings. Conversely, cells undergoing differentiation have distinctive patterns, such as peaks and troughs in the cell index, potentially indicative of an epithelial-to-mesenchymal transition, flattening, cell migration, apoptosis or similar differentiation and growth related changes.
# Impedance Assay for Inhibitory and Cytotoxic Agents. Human pluripotent stem cells, e.g., 2×10^4 hESCs (BG02), were cultured in DC-HAIF, a heregulin-based defined media, with daily feeding in the impedance monitoring plates. After about 24 hours, and 10 μM of the selected LOPAC1280™ compound was added to each well (see arrowhead in FIGS. 3 A & B) and cultured for about an additional 5 days.
Compound,intensity for OCT4 staining [1],EC50 [2] [nM],cell index (impedance); inhibitory or cytotoxic effect on the hESCs (hESCs (BG02))
"22, 23-dihydroavermectin B1a+22,23-dihydroavermectin B1b [Ivermectin]",significantly decreased,170,–
CN(N=O)c1cc(O)ccc1O [Dephostatin],–,–,significant decrease
N#C/C(=C\c1ccc(O)c(O)c1)C(=O)NCc1ccccc1 [Tyrphostin AG 490],–,–,significant decrease
